In PubChem BioAssay (NCI):
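Interpolation was linear, between the two tested concentrations surrounding the appropriate level; five concentrations were tested over 48 hours in 96-well plates. GI50 marks 50% less growth. TGI: concentration producing complete growth inhibition.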

Key:
Experiment in all cases: DTP human tumour cell line panel, 48 h; in the data active = GI50 below about 0.43 µM; inactive = the rest
[1] = system: DLD-1 colon
[2] = system: DMS 114 small cell lung
[3] = system: LXFL 529 NSCLC
[4] = system: M19-MEL melanoma
[5] = system: RXF-631 renal
[6] = system: CAKI-1 renal
[7] = system: HCT-15 colon
[8] = system: HS 578T breast
[9] = system: MCF7 breast
[10] = system: MDA-MB-435
[11] = system: PC-3 prostate
[12] = system: SK-MEL-5 melanoma
[13] = system: BT-549 breast

O=S(OC12CC3CC(CC(C3)C1)C2)c1cc(Cl)cc(Cl)c1OCc1ccccc1 (configuration not stated)
> 100 µM: TGI [1] | TGI [2] | TGI [3] | TGI [4] | TGI [5]

Nc1ccccc1.[C-]#[O+].[C-]#[O+].[C-]#[O+].[C-]#[O+].[C-]#[O+].[Cr]
8.3 µM: TGI [6]
> 10 µM: TGI [7] | TGI [8] | TGI [9] | TGI [10] | TGI [11]
inactive: GI50 [6] 2.04 µM | GI50 [7] 4.99 µM | GI50 [8] 3.28 µM | GI50 [9] 2.43 µM | GI50 [10] 3.67 µM | GI50 [11] 5.87 µM | GI50 [12] 1.53 µM
3.34 µM: TGI [12]

Cc1cn(C2CC(N)C(C(=O)NCC(=O)O)O2)c(=O)[nH]c1=O (configuration not stated)
> 100 µM: TGI [13] | TGI [6] | TGI [7] | TGI [8] | TGI [9] | TGI [10] | TGI [11] | TGI [12]

O=[N+]([O-])c1ccccc1S(=O)(=O)c1ccccc1
47 µM: TGI [5]
> 100 µM: TGI [1] | TGI [2] | TGI [7] | TGI [3] | TGI [4] | TGI [12]

CC(=O)OCC1OC(OCCCCCCO)C(OC(C)=O)C(OC(C)=O)C1OC(C)=O (configuration not stated)
> 100 µM: TGI [13] | TGI [6] | TGI [7] | TGI [8] | TGI [9] | TGI [10] | TGI [11]

CC1(C)C(=O)c2ccccc2OC1N1CCN(C2Oc3ccccc3C(=O)C2(C)C)CC1 (configuration not stated)
> 100 µM: TGI [13] | TGI [6] | TGI [7] | TGI [8] | TGI [9] | TGI [10] | TGI [11] | TGI [12]

COc1ccc(-c2ccc(-c3ccc(C(=N)N)nc3)s2)cc1Cl
inactive: GI50 [6] 1.74 µM | GI50 [10] 1.73 µM | GI50 [11] 1.78 µM | GI50 [12] 1.82 µM
3.32 µM: TGI [12]
3.49 µM: TGI [11]
3.12 µM: TGI [6] | TGI [10]
